The record followed here is ChEMBL document CHEMBL4842348 (J Med Chem, 2021).

Structures are written as SMILES. Values after ≈ are worked out from the molar mass of the structure shown.

A short description of series [1]: Solubility of the compound in pH 7 phosphate buffer. Format: physicochemical.
Series [2] in a line: Cmax in C57BL/6 mouse at 1 mg/kg, iv and 2 mg/kg, po. Format: ADME, organism-based. The arrangement: dose 2 mg/kg. The conditions noted are these: in vivo.
The nature of series [3]: Dose normalized AUC in C57BL/6 mouse at 2 mg/kg, po. The conditions noted are these: in vivo. Format: ADME, organism-based.
Series [4] is described as follows: Total clearance in C57BL/6 mouse in whole blood at 1 mg/kg, iv. Format: ADME, organism-based.
Series [5] is described as follows: Half life in C57BL/6 mouse at 1 mg/kg, iv. Format: ADME, organism-based. The conditions noted are these: in vivo.
Series [6] is described as follows: Oral bioavailability in C57BL/6 mouse at 2 mg/kg. Format: ADME, organism-based. The conditions noted are these: in vivo.
Series [7] in a line: Lipophilicity, logD of the compound at pH 7.3 by HPLC analysis. Format: physicochemical. The conditions noted are these: buffer.
A short description of series [8]: Solubility of the compound in pH 7 phosphate buffer by shake-flask method. Format: physicochemical.
A short description of series [9]: Dose normalized AUC in CD1 mouse at 1 mg/kg, iv and 2 mg/kg, po. The conditions noted are these: in vivo. Format: ADME, organism-based.
Series [10] is described as follows: MRT in CD1 mouse at 1 mg/kg, iv and 2 mg/kg, po. Format: ADME, organism-based. The conditions noted are these: in vivo.
Series [11] in a line: Clearance in CD1 mouse at 1 mg/kg, iv and 2 mg/kg, po. The conditions noted are these: in vivo. Format: ADME, organism-based.
Series [12] can be described thus: Volume of distribution at steady state in CD1 mouse at 1 mg/kg, iv and 2 mg/kg, po. Format: ADME, organism-based. The conditions noted are these: in vivo, read-out: Vdss.
Series [13] is described as follows: Bioavailability in CD1 mouse at 1 mg/kg, iv and 2 mg/kg, po. Format: ADME, organism-based. The conditions noted are these: in vivo.
Series [14] in a line: Metabolic stability in liver microsomes (unknown origin). Format: ADME, Microsome.
Series [15] is described as follows: Terminal half life in C57BL/6-transgenic mouse expressing human CETP at 100 mg/kg, po qd treated for 7 days measured for 240 hrs. Format: ADME, organism-based. The conditions noted are these: C57BL/6-transgenic expressing human CETP, in vivo, time 7 day, read-out: beta t1/2 (converted).
Series [16] in a line: Half life in C57BL/6 mouse at 0.6 mg/kg, iv. Format: ADME, organism-based. The conditions noted are these: in vivo.
Series [17] is described as follows: Terminal half life in C57BL/6-transgenic mouse expressing human CETP at 200 mg/kg, po qd treated for 7 days measured for 240 hrs. Format: ADME, organism-based. The conditions noted are these: in vivo, 168 h, time 7 day.
Series [18] is described as follows: Terminal half life in DIO NFR-transgenic mouse plasma at 100 mg/kg, po once daily for 14 days. Format: ADME, organism-based. The conditions noted are these: time 14 day, read-out: beta t1/2 (converted).
Series [19] can be described thus: Terminal half life in DIO NFR-transgenic mouse liver at 100 mg/kg, po once daily for 14 days. Format: ADME, organism-based. The conditions noted are these: in vivo, time 14 day.
Series [20] can be described thus: Terminal half life in DIO NFR-transgenic mouse adipose tissue at 100 mg/kg, po once daily for 14 days. Format: ADME, organism-based. The conditions noted are these: in vivo, time 14 day.
Series [21] is described as follows: Terminal half life in DIO NFR-transgenic mouse plasma at 30 mg/kg, po once daily for 14 days. Format: ADME, organism-based. The conditions noted are these: time 14 day, read-out: beta t1/2 (converted).
A short description of series [22]: Terminal half life in DIO NFR-transgenic mouse liver at 30 mg/kg, po once daily for 14 days. Format: ADME, organism-based. The conditions noted are these: time 14 day, read-out: beta t1/2 (converted).
Series [23] is described as follows: Terminal half life in DIO NFR-transgenic mouse adipose tissue at 30 mg/kg, po once daily for 14 days. Format: ADME, organism-based. The conditions noted are these: time 14 day, read-out: beta t1/2 (converted).

As usually defined, the solubility is how much of the substance goes into solution per volume. Higher therefore signals a readily soluble substance. Broadly, the Cmax is the maximum level reached in the sampled fluid or tissue. As usually defined, the logD is lipophilicity at a set pH, counting ionised and neutral species. The thermodynamic solubility is the concentration in solution at equilibrium with solid. On to `COc1ccc(C(C)C)cc1-c1ccc(C(F)(F)F)cc1CN1C(=O)O[C@H](c2cc(C(F)(F)F)cc(C(F)(F)F)c2)[C@@H]1C`, for which, in series [1], the solubility is less than 1 µM. Also, the concentration in series [2] peaked (Cmax) at 0.16 µM. Further, the AUC/dose in series [3] amounted to 0.29 µM·kg·h/mg. Besides, the clearance in series [4] came out at 1.14 L/h/kg. Further, in series [5], the half-life is 4.9 h. The bioavailability in [6] stood at 17%. In [7], the logD is more than 6.9. In series [8], the thermodynamic solubility was less than 2 µM.
By MRT is commonly meant the average time that molecules of a dose stay in the body. Regarding `COc1cc(F)c(-c2ccc(C(=O)O)cc2C)cc1-c1ccc(C(F)(F)F)cc1[C@@H]1CC[C@H]2[C@@H](c3cc(C(F)(F)F)cc(C(F)(F)F)c3)OC(=O)N12`, the logD in [7] was determined as 5.5. In addition, the AUC/dose in [9] came out at 3.4 µM·h. Further, the MRT in series [10] is 5.8 h. The molecule further gave a clearance in [11] of 0.396 L/h/kg. Moreover, the Vd in series [12] stood at 2.3 L/kg. The bioavailability in series [13] turned out to be 60%.
Consider `COc1cc(F)c(-c2ccc(C(=O)O)cc2C)cc1-c1ccc(C(F)(F)F)cc1[C@@H]1CC[C@H]2[C@@H](c3cc(C)cc(C(F)(F)F)c3)OC(=O)N12`, for which the Stabilty result in [14] is reported as “Unstable”.
In turn, `COc1ccc(-c2ccc(C(=O)O)cc2C)cc1-c1cnc(N(C)C)nc1[C@@H]1CC[C@H]2[C@@H](c3cc(C(F)(F)F)cc(C(F)(F)F)c3)OC(=O)N12` came in with an AUC/dose in [9] of 0.7 µM·h. In [10], this molecule displayed an MRT of 2.8 h. In [11], this molecule displayed a clearance of 1.98 L/h/kg. The Vd in [12] was found to be 5.6 L/kg. Further, in series [13], the bioavailability came to 140%.
`COc1ncc(-c2c(C)cc(C(=O)O)cc2C)cc1-c1ccc(C(F)(F)F)cc1[C@@H]1CC[C@H]2[C@@H](c3cc(F)cc(C(F)(F)F)c3)OC(=O)N12` had a logD in series [7] of 4.8. Further, in series [14], the Stabilty result is given as “Unstable”.
`COc1ccc(-c2ccc(C(=O)O)cc2C)cc1-c1cnc(C(C)(F)F)nc1CN1C(=O)O[C@H](c2cc(C(F)(F)F)cc(C(F)(F)F)c2)[C@@H]1C` displayed a logD in series [7] of 4.6. This molecule also gave a solubility (thermodynamic) in series [8] of 20 µM (≈ 14.2 µg/mL).
Turning to `COc1ncc(-c2ccc(C(=O)O)cc2C)cc1-c1ccc(C(F)(F)F)nc1CN1C(=O)O[C@H](c2cc(C(F)(F)F)cc(C(F)(F)F)c2)[C@@H]1C`, the logD in [7] amounted to 5.1. The molecule further showed a solubility (thermodynamic) in [8] of 9 µM (≈ 6.42 µg/mL).
Molecule `COc1ccc(-c2ccc(C(=O)O)cc2C)cc1-c1cnc(N(C)C)nc1CN1C(=O)O[C@H](c2cc(C(F)(F)F)cc(C(F)(F)F)c2)[C@@H]1C` yielded a logD in series [7] of 4.8. In [8], this molecule yielded a solubility (thermodynamic) of 43 µM (≈ 29.6 µg/mL).
Regarding `COc1ccc(-c2ccc(C(=O)O)cc2C)cc1-c1cc(C(C)C)c(N(C)C)nc1[C@@H]1CC[C@H]2[C@@H](c3cc(C(F)(F)F)cc(C(F)(F)F)c3)OC(=O)N12`, the logD in series [7] was determined as 6.6. In series [14], the Stabilty result is recorded as “Unstable”.
The molecule `COc1ccc(-c2ccc(C(=O)O)cc2C)cc1-c1cnc(C(F)(F)F)nc1CN1C(=O)O[C@H](c2cc(C(F)(F)F)cc(C(F)(F)F)c2)[C@@H]1C` showed a logD in series [7] of 4.9. Further, in series [8], the thermodynamic solubility was determined as 6 µM (≈ 4.28 µg/mL).
On the same counts, the results for `COc1ncc(-c2ccc(C(=O)O)cc2C)cc1-c1cc(C(F)(F)F)c(OC)nc1CN1C(=O)O[C@H](c2cc(C(F)(F)F)cc(C(F)(F)F)c2)[C@@H]1C` are 5.7 and 5 µM (≈ 3.72 µg/mL).
Take `COc1ccc(-c2ccc(C(=O)O)cc2C)cc1-c1cnc(N2CC(F)C2)nc1CN1C(=O)O[C@H](c2cc(C(F)(F)F)cc(C(F)(F)F)c2)[C@@H]1C`: the logD in series [7] stood at 4.6. Moreover, the solubility (thermodynamic) in series [8] was found to be 8 µM (≈ 5.75 µg/mL).
Molecule `COc1ccc(-c2ccc(C(=O)O)cc2C)cc1-c1ccc(C(F)(F)F)cc1CN1C(=O)O[C@H](c2cc(C(F)(F)F)cc(C(F)(F)F)c2)[C@@H]1C` had a solubility in [1] of 16 µM (≈ 11.4 µg/mL). Further, in series [2], the concentration peaked (Cmax) at 0.43 µM. Besides, the AUC/dose in series [3] turned out to be 0.86 µM·kg·h/mg. The same molecule came in with a clearance in series [4] of 1.08 L/h/kg. In series [5], the half-life is 2.5 h. For the same molecule, in series [6], the bioavailability is 65%.
In the case of `Cc1cc(C(=O)O)ccc1-c1ccc(Cl)c(-c2ccc(C(F)(F)F)cc2CN2C(=O)O[C@H](c3cc(C(F)(F)F)cc(C(F)(F)F)c3)[C@@H]2C)c1`, the concentration in solution in series [1] (solubility) was 43 µM (≈ 30.8 µg/mL). Moreover, in series [2], the Cmax is 0.39 µM. The AUC/dose in [3] stood at 1.8 µM·kg·h/mg. In addition, the clearance in series [4] came out at 0.336 L/h/kg. Also, the half-life was 62 h in series [5] and 83 h in series [15]. Also, in [6], the bioavailability amounted to 43%. The logD in series [7] came out at 6.2. Also, the thermodynamic solubility in series [8] worked out at 43 µM (≈ 30.8 µg/mL).
In [7], `COc1ncc(-c2cc(-c3ccc(C(=O)O)cc3C)ccc2OC)c(CN2C(=O)O[C@H](c3cc(C(F)(F)F)cc(C(F)(F)F)c3)[C@@H]2C)n1` showed a logD of 4.2. Besides, in [8], the solubility (thermodynamic) was determined as 52 µM (≈ 35.1 µg/mL).
In [1], `COc1cc(F)c(C(C)C)cc1-c1ccc(C(F)(F)F)cc1CN1C(=O)O[C@H](c2cc(C(F)(F)F)cc(C(F)(F)F)c2)[C@@H]1C` [ANACETRAPIB] showed a solubility of less than 1 µM. Besides, the AUC/dose in series [3] was found to be 0.36 µM·kg·h/mg. Also, the half-life in series [16] was 3.6 h. Further, the “beta t1/2” value came to 121 h in series [17], 49 h in series [19] and 150 h in series [20]. Further, the logD in series [7] was more than 6.9. In addition, in [18], the half-life at […] was 27 h.
In the case of `Cc1cc(C)c2c(c1)[C@@H](N(Cc1cc(C(F)(F)F)cc(C(F)(F)F)c1)c1nnn(C)n1)CCCN2C[C@H]1CC[C@H](C(=O)O)CC1` [EVACETRAPIB], the results for the half-life at […] in series [21], in series [22] and in series [23] were 7.1 h, 18 h and 1.3 h, respectively.
